Laboratory results published in paper PMC4979516, “Quinazoline-based tricyclic compounds that regulate programmed cell death, induce neuronal differentiation, and are curative in animal models for excitotoxicity and hereditary brain disease” (Cell Death Discovery, 2015).
“Also recorded” adds a separate entry of the source.

Key:
PC12 cells [1] = assay: Collapse of mitochondrial membrane potential (JC-1) in PC12 cells; format: cell-based, rat; conditions: PC12, 50 μM MGV-1, 35 mM glutamate
Excerpt: JC-1 was used to assay changes in Δψm, as described previously.[71],[79] Owing to charges distributed along JC-1 molecules, they pass unimpaired (charged) mitochondrial membranes and enter the mitochondrial matrix. There the J-molecules form J-aggregates, which emit at 590 nm (orange–red fluorescence). […] The monomers emit at 527 nm (green fluorescence). A decrease in the red–green fluorescence intensity ratio is an indication for mitochondrial depolarization. As a positive control, the proton ionophore carbonyl cyanide m-chlorophenylhydrazone was used as described previously.[71] Cells were collected and prepared for suspension in 10 μg/ml of JC-1 solution in PBS. After incubation at 37 °C for 30 min in the dark, the cells were washed with 0.5 ml of PBS, and the cell suspensions were analyzed with the BD FACSCalibur flow cytometer.

[2] = tested on: PC12 cells strain #1 (polygonal cells); assay: Neuronal differentiation (neurite sprouting) of PC12 strain #1; format: cell-based, rat; conditions: strain #1, only polygonal cells
PC12 cells [3] = assay: Neuronal differentiation of PC12 cells, strain not specified; format: cell-based, rat; conditions: agent by itself; MGV-1 50 μM
Description: For our newly developed differentiation method by MGV-1 in combination with glutamate, PC12 cells were plated onto poly-L-lysine coated culture plates and Petri dishes at a relatively low density (5.2×10^3 cells/cm^2 for six-well plates and 3.6×10^3 cells/cm^2 for Petri dishes), in DMEM medium containing 8% heat-inactivated FBS and 8% horse serum. […] Exposure to vehicle alone (culture medium with 1% of ethanol) was used as the control.
The major and determining indication of neural differentiation of PC12 cells is neurite development.[23],[80] […] The number of differentiated cells was determined by visual examination of the captured fields. In particular, a line was drafted at half height of the image and the cell bodies crossed by the line were further analyzed regarding differentiation. […] Cells with at least one identifiable neurite with a length at least equal to the cell body diameter were scored, and their number expressed as a percentage of the total number of cells crossed by said line. In addition, for each of these cells, the length of the longest neurite was determined (using AxioVision Image software, Zeiss). […]

[4] = tested on: NeuN expression in PC12 cells strain #3; assay: Western blot of NeuN in PC12 strain #3; format: cell-based, rat; conditions: PC12 strain #3, versus vehicle control
Description: The relative protein levels of TSPO and other proteins related to neurodifferentiation (including β-actin, NeuN, tubulin-3β), were assayed by immunoblotting with the aid electrophoresis through 12% SDS-polyacrylamide gel, according to previously described methods.[71] A priori, general protein levels were measured by the method of Bradford using BSA as a standard.[75] After electrophoresis, the gels were subjected to electrophoretic transfer to nitrocellulose membranes. Then, the membranes were blocked for 1 h in 5% non-fat milk in 62.5 mM sodium phosphate buffer, pH 7.4, containing 100 mM NaCl, and 0.1% (v/v) Tween-20 (PBS-T) and then incubated for 2 h or overnight at 4 °C with the appropriate antibodies: anti-tubulin-3β 1 : 10 000, anti-NeuN 1 : 1000, anti β-actin 1 : 15 000, and anti-TSPO 1 : 10 000.[73] After washing with TBS-T, the membranes were incubated with IgG secondary antibody linked to horseradish peroxidase (anti-rabbit IgG 1 : 20 000, anti-mouse IgG 1 : 10 000, as appropriate, from Jackson Immunologicals, West Grove, PA, USA) in TBS-T at room temperature. Binding of antibodies to the membrane was detected with the EZ-ECL-detection reagent (Biological Industries), using the ImageQuant LAS 4010 apparatus and Totallab Quant quantitative image analysis of Totallab (Newcastle upon Tyne, England).

[5] = tested on: kainic acid-injected Sprague-Dawley rats; assay: Systemic kainic acid injection model in rats (seizures, hyper reactivity, hippocampal histology); format: in vivo; conditions: rat
Excerpt: Epileptic seizures in rats, including gnawing, wet dog shakes, head bobbing, forepaw abduction, rearing, forelimb clonus, loss of balance, and convulsions were induced by systemic injections of kainic acid and scored as previously described.[48],[83–85] Such induced seizures typically are accompanied by neurodegeneration in the hippocampus, amydala, pyriform cortex, followed by edema in the diencephalon, and mesencephalon.[43],[44],[86] To test the effects of pretreatment with MGV-1 on the consequences of kainic acid injections, first of all MGV-1 was dissolved in vehicle (10% (v/v) dimethylsulfoxide (DMSO) in sesame oil). After that, 8 weeks old rats received an intraperitoneal injection of 15, 7.5, or 3.75 mg of MGV-1 (per kg/rat), according to previous methods.[48] […] After the kainic acid injections, the rats were monitored continuously for 2 h for the development of epileptic symptoms.[48],[86]
For MGV-1 post-treatment, rats first received a KA injection (9 mg/kg/rat) and then a single injection of 15 mg/kg MGV-1 2 h later, that is, after the typical period for full blown seizure activity. In a single experiment, each experimental group and the vehicle control group consisted of nine rats. Then, for 1 week, daily injections of MGV-1 were given, and the rats were tested daily for hyper reactivity in response to handling.[47] Histological assays were applied 2 weeks after kainic acid injections.
For histological assays, rats that had developed seizures and had subsequently received treatment or control vehicle were sedated with ketamine (75 mg/kg) and xylazine (10 mg/kg) injections until no reflexes were seen and were then perfused with 4% of paraformaldehyde. […] The brains were taken and then stored in paraformaldehyde 4% solution at 4 °C. After 48 h, the solution was changed to 20% sucrose solution at 4 °C. Brains of rats that were post treated with MGV-1 were prepared in the same way. After the brains had sunk they were embedded in optimal cutting temperature compound, frozen with liquid nitrogen, and stored at −70 °C. The brains were cut at −18 °C on a Cryostat Leica (Wetzlar, Germany) CM3050S microtome in 40 μm sections from Bregma −2.8 to −5.8. The sections were kept in PBS without Ca^2+ and Mg^2+ with 0.5% sodium azide at 4 °C. Sections were incubated with primary antibodies against anti-NeuN to label neurons.[87] The appropriate secondary antibodies were applied with VECTASTAIN Peroxidase ABC Kits (Vector Laboratories, Burlingame, CA, USA) based on avidin–biotin, according to the manufacturer’s instructions. The labeled, floating sections were mounted on microscope slides and coverslipped applying glycerol vinyl alcohol aqueous mounting solution. For observations and micrographs, a BH2 Olympus (Tokyo, Japan) upright microscope outfitted with a Nikon (Tokyo, Japan) DSFi1 digital camera was used.

Q: Which results are given for CN(C)C(=O)Oc1nc(-c2ccccc2)nc2ccccc12 [MGV-1, 2-phenylquinazolin-4-yl dimethylcarbamate]?
A: Enhancement of the incidence of collapse of the ΔΨm (PC12 cells [1]): threefold; Differentiation of PC12 strain #1 by the agent by itself [2]: can be differentiated by MGV-1 by itself; Neuronal differentiation of PC12 cells (neurite outgrowth) (PC12 cells [3]): very effective in inducing extensive neuronal differentiation; also recorded: more effective than NGF and glutamate by themselves; Increase of NeuN expression (western blot) [4]: do not enhance NeuN expression significantly; Induction of seizures by kainic acid ([5]; 15 and 7.5 mg/kg MGV-1 i.p. 2 h before kainic acid 9 mg/kg): reduction of seizure incidence by half; Hyper reactivity in response to handling, post-treatment ([5]; MGV-1 15 mg/kg 2 h after kainic acid, then daily for 6 days): restores normal response to handling; Damage in hippocampal area CA1 (NeuN labeling), post-treatment ([5]; MGV-1 15 mg/kg 2 h after kainic acid, then daily for a week): attenuated damage to area CA1, but less so than MGV-1 pretreatment; Hyper reactivity in response to handling, pretreatment ([5]; MGV-1 2 h before kainic acid, week after injection): attenuates the incidence of the hyper reactivity; Damage in hippocampal area CA1 (NeuN labeling), pretreatment ([5]; MGV-1 i.p. before kainic acid 9 mg/kg, histology 2 weeks later): well attenuated
